In patent US20180016596A1, “NUCLEIC ACID CONSTRUCTS, PLANTS COMPRISING SAME AND USES THEREOF IN ENHANCING PLANT PEST RESISTANCE AND ALTERING PLANT MONOTERPENE PROFILE” (Futuragene Israel Ltd., priority 2014, published 2018):

Tested on: Ophelimus maskelli
Assay: Free choice experiment: Eucalyptus camaldulensis saplings with monoterpene disks exposed to Ophelimus maskelli gall wasps
Format: in vivo
Conditions: for Eucalyptus camaldulensis resistance to Ophelimus maskelli infection / Ophelimus maskelli oviposition / number of infected leaves compared to control / number of galls per leaf compared to control: free choice, in words; for Ophelimus maskelli oviposition: compared to controls; for number of infected leaves compared to control: eucalyptol vs mineral oil, geraniol and citronellal vs mineral oil and eucalyptol controls; for number of galls per leaf compared to control: vs mineral oil and eucalyptol controls
Procedure: Preparation of monoterpene disks—100 μl of pure monoterpene solutions of geraniol, citronellal, eucalyptol (also known as 1,8-cineole, 1,8-epoxy-p-menthane) or mineral oil (Sigma-Aldrich Cat. Nos. G9698, 27470, C80601 or M5904, respectively) were each mixed with 5 ml of Vaseline. The mixed solutions were then spread using a spatula onto 20 mm in diameter filter paper disks (Whatman 3 mm cellulose chromatography papers, Sigma-Aldrich Cat. No. Z742422).
Free choice experiments—The free-choice experiments, were gall wasps were free to choose which plant to infest in a given cage, were carried out with Ophelimus maskelli gall wasp in three net cages of 80 cm×100 cm×150 cm in a greenhouse (28 ±2° C.) as described in Bleeker et al. [Plant Physiol. (2009) 151(2): 925-935], with the following modifications. Four Eucalyptus camaldulensis 3 months old saplings were placed randomly in each cage and 10 disks with either geraniol, citronellal, eucalyptol (1,8-Cineole, used as control) or mineral oil (used as control) were attached by metal wires to the branches of each sapling (10 branches for each sapling) (see FIG. 2) so that each sapling had 10 disks attached with one of the treatments. Next, 500 Ophelimus maskelli female adult wasps were released in the middle of each net cage. One week later the disks were removed from the branches of the saplings, the saplings were taken out of the cage and thereafter the Eucalyptus saplings were transferred to an insect free net house, an outdoor perimeter surrounded by a 50 mesh insect proof net. The plants were maintained in the net house for 6 weeks after inoculation. At the end of the six week period, infection levels were evaluated by counting the number of galls developed on the treated saplings.

[1] = average of 3 cages, leaves with 1-10 galls per leaf
[2] = average of 3 cages, leaves with 10-50 galls per leaf
[3] = average of 3 cages, leaves with 50-100 galls per leaf
[4] = cage 1, leaves with 1-10 galls per leaf, 6 weeks after inoculation
[5] = cage 1, leaves with 10-50 galls per leaf, 6 weeks after inoculation
[6] = cage 1, leaves with 50-100 galls per leaf, 6 weeks after inoculation
[7] = cage 1, total, 6 weeks after inoculation
[8] = cage 2, leaves with 1-10 galls per leaf, 6 weeks after inoculation
[9] = cage 2, leaves with 10-50 galls per leaf, 6 weeks after inoculation
[10] = cage 2, leaves with 50-100 galls per leaf, 6 weeks after inoculation
[11] = cage 2, total, 6 weeks after inoculation
[12] = cage 3, leaves with 1-10 galls per leaf, 6 weeks after inoculation
[13] = cage 3, leaves with 10-50 galls per leaf, 6 weeks after inoculation
[14] = cage 3, leaves with 50-100 galls per leaf, 6 weeks after inoculation
[15] = cage 3, total, 6 weeks after inoculation

| Compound | Number of infected leaves [1] | Number of infected leaves [2] | Number of infected leaves [3] | Number of infected leaves (average of 3 cages, total) | Number of infected leaves [4] | Number of infected leaves [5] | Number of infected leaves [6] | Number of infected leaves [7] | Number of infected leaves [8] | Number of infected leaves [9] | Number of infected leaves [10] | Number of infected leaves [11] | Number of infected leaves [12] | Number of infected leaves [13] | Number of infected leaves [14] | Number of infected leaves [15] | Eucalyptus camaldulensis resistance to Ophelimus maskelli infection | Ophelimus maskelli oviposition | number of infected leaves compared to control | number of galls per leaf compared to control |
| --- | --- | --- | --- | --- | --- | --- | --- | --- | --- | --- | --- | --- | --- | --- | --- | --- | --- | --- | --- | --- |
| CC(C)=CCCC(C)CC=O (stereo not shown) [citronellal, 3,7-dimethyloct-6-en-1-al] | 1 | 3 | 0 | 4 | 1 | 4 | 0 | 5 | 1 | 2 | 0 | 3 | 1 | 3 | 0 | 4 | significantly increased | significantly decreased | reduced number of infected leaves | reduced number of galls per leaf |
| CC12CCC(CC1)C(C)(C)O2 [eucalyptol, 1,8-cineole, reference compound] | 5.333 | 10 | 6 | 21.33 | 4 | 14 | 6 | 24 | 5 | 6 | 6 | 17 | 7 | 10 | 6 | 23 | – | did not have a negative effect | slight increase | – |
| CC(C)=CCC/C(C)=C/CO [geraniol, (trans)-3,7-Dimethyl-2,6-octadien-1-ol] | 4 | 2 | 1 | 7 | 4 | 3 | 1 | 8 | 4 | 2 | 1 | 7 | 4 | 1 | 1 | 6 | significantly increased | significantly decreased | reduced number of infected leaves | reduced number of galls per leaf |
